For the data set, the system named is AF/AFL patients. The experiment in a line: EURIDIS and ADONIS post hoc analysis: adverse events and ECG changes by timing of amiodarone stop. The format is in vivo, human. To be noted: for QTc-Fridericia > or = 500 msec: unit assumed. The text has this: Methods: In EURIDIS and ADONIS studies mentioned in the article of the New England Journal of Medicine, 357, 10, Sep.
Results: Dronedarone decreased AF/AFL recurrence compared to placebo (HR=0.64 [95% CI 0.44-0.95], P=0.022) in this subgroup. […] All the results are included in the table 1 below.
In the table above, “A” means Amiodarone, “D” means” dronedarone, “PI” means Placebo, “n” is the number of patients tested with “PI” or “D”.

Where [1] appears, read: A stopped more than 2 days before randomization, n = 35.
Where [2] appears, read: A stopped within 2 days before randomization, n = 98.
Where [3] appears, read: No amiodarone treatment before randomization, n = 680.

In the case of `CCCCc1oc2ccc(NS(C)(=O)=O)cc2c1C(=O)c1ccc(OCCCN(CCCC)CCCC)cc1` [Dronedarone, 2-n-Butyl-3-[4-(3-di-n-butylaminopropoxy)benzoyl]-5-methylsul phonamidobenzofuran], under setting [1], the “Bradyarrhythmia (%) (under adverse events with drug discontinuation)” value stood at 0%; the “Bradyarrhythmia (%) (under serious adverse events)” value was 0%; the “PR-interval > or = 200 msec and increase > or = 20 msec versus baseline” value is 22.9; the “Rate of Adverse Events with dronedarone discontinuation (%)” value (“Rate of Adverse Events … (%)” below) was 20.0%. Besides, under setting [1], the “Rate of Serious adverse events (%)” value worked out at 17.1% and the QTc-Fridericia > or = 500 msec is 14.3%. Moreover, under setting [2], the “Bradyarrhythmia (%) (under adverse events with drug discontinuation)” value is listed as 3.1%; the “Bradyarrhythmia (%) (under serious adverse events)” value came to 1%; the “PR-interval > or = 200 msec and increase > or = 20 msec versus baseline” value worked out at 25.8; the “Rate of Adverse Events … (%)” value is recorded as 8.2%. For the same compound, under setting [2], the “Rate of Serious adverse events (%)” value is given as 15.3% and the QTc-Fridericia > or = 500 msec came to 7.9%. In addition, under setting [3], the “Bradyarrhythmia (%) (under adverse events with drug discontinuation)” value is listed as 0.7%; the “Bradyarrhythmia (%) (under serious adverse events)” value was determined as 1.3%; the “PR-interval > or = 200 msec and increase > or = 20 msec versus baseline” value is 28.0; the “Rate of Adverse Events … (%)” value is listed as 9.1%. In addition, under setting [3], the “Rate of Serious adverse events (%)” value turned out to be 13.7% and the QTc-Fridericia > or = 500 msec is 4.4%. For the same compound, where the note is “small patient cohort switched rapidly from A to D”, the Tolerability result was “good tolerability”.

The values are drawn from US20120329867A1 (SANOFI, priority 2010, published 2012).
